Series [1] concerns Rattus norvegicus. Put plainly: Activity against non high density lipoprotein cholesterol level in obese female Zucker rat serum after 2 weeks at 100 mg/kg (percent change from pre-treatment). It is filed as functional.
Series [2] relates to Rattus norvegicus. Put plainly: Tolerability of compound upto 2000 mg/kg. The class given is organism-based. Also noted: dose 2000 mg/kg. Conditions: in vivo; call rule not given here.
Series [3] concerns Rattus norvegicus. Put plainly: Activity against triglyceride level in obese female Zucker rat serum after 1 week at 100 mg/kg (percent change from pre-treatment). The class given is functional.
Series [4] concerns Rattus norvegicus. Put plainly: Activity against triglyceride level in obese female Zucker rat serum after 2 weeks at 100 mg/kg (percent change from pre-treatment). The class given is functional.
Series [5] has as its system Rattus norvegicus. Put plainly: Activity against high density lipoprotein cholesterol level in obese female Zucker rat serum after 1 week at 100 mg/kg (percent change from pre-treatment). The class given is functional.
For a further series, the system named is Hepatocyte. Description: Inhibition of lipid synthesis in primary rat hepatocytes by incorporation radiolabeled acetate into cellular lipids. The class given is functional, cell-based, Sprague-Dawley.
Series [6] has as its system Rattus norvegicus. Put plainly: Activity against high density lipoprotein cholesterol level in obese female Zucker rat serum after 2 weeks at 100 mg/kg (percent change from pre-treatment). The class given is functional.
Series [7] has as its system Rattus norvegicus. Put plainly: Activity against non high density lipoprotein cholesterol level in obese female Zucker rat serum after 1 week at 100 mg/kg (percent change from pre-treatment). It is filed as functional.
The test system of series [8] is Rattus norvegicus. Put plainly: Activity against triglyceride level in obese female Zucker rat serum after 2 weeks at 30 mg/kg (percent change from pre-treatment). It is filed as functional.
The subject of series [9] is Rattus norvegicus. Put plainly: Activity against non high density lipoprotein cholesterol level in obese female Zucker rat serum after 2 weeks at 30 mg/kg (percent change from pre-treatment). It is filed as functional.
For series [10], the system named is Rattus norvegicus. Description: Activity against high density lipoprotein cholesterol level in obese female Zucker rat serum after 1 week at 30 mg/kg (percent change from pre-treatment). The class given is functional.
For series [11], the system named is Rattus norvegicus. Description: Activity against high density lipoprotein cholesterol level in obese female Zucker rat serum after 2 weeks at 30 mg/kg (percent change from pre-treatment). The class given is functional.
The subject of series [12] is Rattus norvegicus. Description: Activity against triglyceride level in obese female Zucker rat serum after 1 week at 30 mg/kg (percent change from pre-treatment). It is filed as functional.
The subject of series [13] is Rattus norvegicus. Description: Activity against non high density lipoprotein cholesterol level in obese female Zucker rat serum after 1 week at 30 mg/kg (percent change from pre-treatment). The class given is functional.
The test system of series [14] is Rattus norvegicus. Put plainly: Activity against non high density lipoprotein cholesterol level in obese female Zucker rat serum after 2 weeks at 53 mg/kg (percent change from pre-treatment). It is filed as functional.
The test system of series [15] is Rattus norvegicus. Put plainly: Activity against high density lipoprotein cholesterol level in obese female Zucker rat serum after 2 weeks at 53 mg/kg (percent change from pre-treatment). The class given is functional.
The test system of series [16] is Rattus norvegicus. Put plainly: Activity against high density lipoprotein cholesterol level in obese female Zucker rat serum after 1 week at 53 mg/kg (percent change from pre-treatment). The class given is functional.
The subject of series [17] is Rattus norvegicus. Description: Activity against non high density lipoprotein cholesterol level in obese female Zucker rat serum after 1 week at 53 mg/kg (percent change from pre-treatment). The class given is functional.
Series [18] relates to Rattus norvegicus. Description: Activity against triglyceride level in obese female Zucker rat serum after 2 weeks at 53 mg/kg (percent change from pre-treatment). The class given is functional.
Series [19] relates to Rattus norvegicus. Put plainly: Activity against triglyceride level in obese female Zucker rat serum after 1 week at 53 mg/kg (percent change from pre-treatment). The class given is functional.
Series [20] has as its system Rattus norvegicus. Put plainly: Activity against triglyceride level in obese female Zucker rat serum after 2 weeks at 80 mg/kg (percent change from pre-treatment). It is filed as functional.
Series [21] has as its system Rattus norvegicus. Put plainly: Activity against high density lipoprotein cholesterol level in obese female Zucker rat serum after 1 week at 80 mg/kg (percent change from pre-treatment). The class given is functional.
Series [22] concerns Rattus norvegicus. Put plainly: Activity against non high density lipoprotein cholesterol level in obese female Zucker rat serum after 2 weeks at 80 mg/kg (percent change from pre-treatment). The class given is functional.
For series [23], the system named is Rattus norvegicus. Put plainly: Activity against triglyceride level in obese female Zucker rat serum after 1 week at 80 mg/kg (percent change from pre-treatment). The class given is functional.
Series [24] deals with Rattus norvegicus. Put plainly: Activity against non high density lipoprotein cholesterol level in obese female Zucker rat serum after 1 week at 80 mg/kg (percent change from pre-treatment). The class given is functional.
In series [25] the test system is Rattus norvegicus. Description: Activity against high density lipoprotein cholesterol level in obese female Zucker rat serum after 2 weeks at 80 mg/kg (percent change from pre-treatment). It is filed as functional.
[26] abbreviates: Rattus norvegicus, Sprague-Dawley, Hepatocyte, read-out: IC50.

Structures are written as SMILES.

Consider `CC(C)(CO)CCCCOCCCCC(C)(C)CO`, for which the Activity in the series on Rattus norvegicus [1] is 11%; in the series on Rattus norvegicus [2], “Active”; with Rattus norvegicus [3], -77%; in the series with Rattus norvegicus [4], -71%; in the series on Rattus norvegicus [5], 234%; with Rattus norvegicus [6], 366%. The Activity in the series on Rattus norvegicus [7] is given as -38%. Besides, the IC50 with Hepatocyte (setting [26]) is 10.7 µM.
As to `CC(C)(CO)CCCCCCCCCC(C)(C)CO`, the Activity with Rattus norvegicus [1] is -75%; with Rattus norvegicus [3], -83%; with Rattus norvegicus [4], -82%; with Rattus norvegicus [5] it was 189%; in the series with Rattus norvegicus [6], 137%; in the series with Rattus norvegicus [7], -67%.
`CC(C)(CO)CCCCS(=O)(=O)CCCCC(C)(C)CO`: the Activity is -34% with Rattus norvegicus [1]; -34% with Rattus norvegicus [3]; -19% in the series on Rattus norvegicus [4]; 15% in the series with Rattus norvegicus [5]; -13% in the series on Rattus norvegicus [6]; -46% in the series on Rattus norvegicus [7]. In addition, in the series with Hepatocyte (setting [26]), the IC50 came to 8.9 µM.
Turning to `CC(=O)C(CCCCC(C)(C)CO)CCCCC(C)(C)CO`, the Activity is 22% in the series on Rattus norvegicus [8]; 52% in the series with Rattus norvegicus [9]; -14% in the series on Rattus norvegicus [10]; -19% with Rattus norvegicus [11]; -6% with Rattus norvegicus [12]; 15% in the series with Rattus norvegicus [13]. For the same molecule, the IC50 with Hepatocyte (setting [26]) came out at 46 µM.
`CC(C)(CO)CCCCNCCCCC(C)(C)CO`: the Activity is listed as -10% with Rattus norvegicus [14]; 16% in the series with Rattus norvegicus [15]; -23% with Rattus norvegicus [16]; 78% in the series with Rattus norvegicus [17]; -32% with Rattus norvegicus [18]; -24% in the series on Rattus norvegicus [19]. For the same molecule, in the series on Hepatocyte (hepatocyte), the IC50 result is “Not Active”.
Regarding `CC(C)(CO)CCCCN(O)CCCCC(C)(C)CO`, the Activity in the series on Rattus norvegicus [8] is 13%; in the series on Rattus norvegicus [9], -5%; in the series with Rattus norvegicus [10], 27%; in the series on Rattus norvegicus [11], 19%; in the series with Rattus norvegicus [12], -26%; in the series on Rattus norvegicus [13] it was -40%. Moreover, the half-maximal inhibitory concentration (IC50) with Hepatocyte (setting [26]) was 63 µM.
Take `CC(CCCCSCCCCC(C)(C(=O)O)c1ccccc1)(C(=O)O)c1ccccc1` (stereo not given): in the series with Hepatocyte (setting [26]), the half-maximal inhibitory concentration (IC50) came out at 26 µM.
Take `CC(C)(CO)CCC[S+]([O-])CCCC(C)(C)CO`: the Activity with Rattus norvegicus [1] is 12%; in the series on Rattus norvegicus [3], -36%; in the series on Rattus norvegicus [4], -5%; with Rattus norvegicus [5], 54%; with Rattus norvegicus [6] it was 93%; with Rattus norvegicus [7] it was 40%. Also, the half-maximal inhibitory concentration (IC50) entry with Hepatocyte (hepatocyte) is recorded as “Not Active”.
On to `CC(C)(CO)CCCC[S+]([O-])CCCCC(C)(C)CO`, for which the Activity with Rattus norvegicus [1] is given as 64%; in the series on Rattus norvegicus [3] it was -37%; in the series on Rattus norvegicus [4] it was -35%; in the series with Rattus norvegicus [5], 127%; in the series with Rattus norvegicus [6] it was 233%; in the series with Rattus norvegicus [7] it was 56%. In the series on Hepatocyte (hepatocyte), the IC50 entry is on record as “Not Active”.
Regarding `CC(CO)(CCCSCCCC(C)(CO)c1ccccc1)c1ccccc1` (stereo not given), the Activity in the series with Rattus norvegicus [1] is reported as 8%; with Rattus norvegicus [3] it was -18%; with Rattus norvegicus [4], 1%; with Rattus norvegicus [5], 9%; with Rattus norvegicus [6], 2%; in the series with Rattus norvegicus [7], -26%. Also, the IC50 in the series on Hepatocyte (setting [26]) came to 41 µM.
Turning to `CC(CO)(CCCCSCCCCC(C)(CO)c1ccccc1)c1ccccc1` (stereo not given), the IC50 with Hepatocyte (setting [26]) is 64 µM.
As for `CC(C)(CO)CCCCNC(=O)NCCCCC(C)(C)CO`, the Activity is recorded as -5% in the series with Rattus norvegicus [1]; -42% with Rattus norvegicus [3]; -31% in the series with Rattus norvegicus [4]; 66% in the series on Rattus norvegicus [5]; 92% in the series on Rattus norvegicus [6]; -33% in the series with Rattus norvegicus [7]. Further, the half-inhibitory concentration (IC50) in the series on Hepatocyte (setting [26]) came out at 3.4 µM.
With `CC(C)(CO)CCCSCCCC(C)(C)CO`, the Activity is reported as -34% in the series on Rattus norvegicus [8]; -14% in the series with Rattus norvegicus [9]; 54% with Rattus norvegicus [10]; 40% in the series with Rattus norvegicus [11]; -51% in the series on Rattus norvegicus [12]; -40% with Rattus norvegicus [13]. The concentration for half-maximal inhibition (IC50) in the series with Hepatocyte (setting [26]) came out at 15 µM.
For the molecule `CC(C)(CO)CCCCOP(=O)(O)OCCCCC(C)(C)CO`, the Activity with Rattus norvegicus [20] is listed as -13%; in the series with Rattus norvegicus [21], 27%; in the series on Rattus norvegicus [22] it was -17%; with Rattus norvegicus [23] it was -10%; with Rattus norvegicus [24], -29%; in the series with Rattus norvegicus [25], 8%. For the same molecule, the half-maximal inhibitory concentration (IC50) entry in the series on Hepatocyte (hepatocyte) was “Not Active”.
With `CC(C)(CO)CCCCNC(=O)OCCCCC(C)(C)CO`, the Activity in the series on Rattus norvegicus [1] is 84%; with Rattus norvegicus [3] it was -52%; in the series with Rattus norvegicus [4] it was -4%; in the series with Rattus norvegicus [5] it was 60%; with Rattus norvegicus [6], 65%; with Rattus norvegicus [7], 10%. In addition, the IC50 with Hepatocyte (setting [26]) is 0.8 µM.
For `CC(C)(CO)CCCCNC(=O)CCCCC(C)(C)CO`, the Activity is recorded as -10% with Rattus norvegicus [8]; -7% with Rattus norvegicus [9]; 2% in the series on Rattus norvegicus [10]; 20% in the series on Rattus norvegicus [11]; -20% in the series on Rattus norvegicus [12]; -21% with Rattus norvegicus [13]. Moreover, in the series with Hepatocyte (hepatocyte), the IC50 entry is “Not Active”.
Take `CC(C)(CO)CCCCOC(=O)CCCCC(C)(C)CO`: the Activity was -5% with Rattus norvegicus [1]; -20% in the series on Rattus norvegicus [3]; 7% in the series on Rattus norvegicus [4]; 18% in the series on Rattus norvegicus [5]; 23% with Rattus norvegicus [6]; -25% in the series with Rattus norvegicus [7]. The 50% inhibitory concentration (IC50) in the series with Hepatocyte (setting [26]) worked out at 13 µM.
As for `CC(C)(CCCCCC(=O)CCCCCC(C)(C)C(=O)O)C(=O)O`, the Activity was -99% in the series on Rattus norvegicus [1]; -93% in the series with Rattus norvegicus [3]; -94% in the series on Rattus norvegicus [4]; 72% in the series on Rattus norvegicus [5]; 168% in the series with Rattus norvegicus [6]; -98% in the series with Rattus norvegicus [7].
Take `CC(C)(CO)CCCCC(O)CCCCC(C)(C)CO`: the Activity in the series on Rattus norvegicus [1] was -15%; with Rattus norvegicus [3], -70%; with Rattus norvegicus [4], -46%; in the series on Rattus norvegicus [5] it was 219%; in the series on Rattus norvegicus [6] it was 222%; in the series on Rattus norvegicus [7], -61%. The 50% inhibitory concentration (IC50) with Hepatocyte (setting [26]) is 6.4 µM.
On to `CC(C)(CO)CCCCC(CO)CCCCC(C)(C)CO`, for which the Activity in the series with Rattus norvegicus [1] was -12%; in the series on Rattus norvegicus [3] it was -52%; with Rattus norvegicus [4], -23%; in the series on Rattus norvegicus [5], 2%; in the series with Rattus norvegicus [6], -2%; with Rattus norvegicus [7], -43%. Besides, the IC50 in the series with Hepatocyte (setting [26]) came to 15 µM.
In the case of `CC(CO)(CCC[S+]([O-])CCCC(C)(CO)c1ccccc1)c1ccccc1` (stereo not given), the Activity with Rattus norvegicus [20] is given as 41%; in the series with Rattus norvegicus [21], -23%; in the series with Rattus norvegicus [22], 81%; in the series on Rattus norvegicus [23], 18%; with Rattus norvegicus [24], 68%; in the series on Rattus norvegicus [25], -36%. Moreover, the IC50 entry in the series with Hepatocyte (hepatocyte) is “Not Active”.
As for `CC(CO)(CCCC[S+]([O-])CCCCC(C)(CO)c1ccccc1)c1ccccc1` (stereo not given), in the series with Hepatocyte (setting [26]), the IC50 came out at 81 µM.

(Values after ChEMBL document CHEMBL1148579, “Influence of various central moieties on the hypolipidemic properties of long hydrocarbon chain diols and diacids” (J Med Chem, 2006).)
